Assays:
[1] = system: Ovariectomised adult female Sprague Dawley rats; assay: Female rat sexual receptivity test (lordosis quotient, LQ); type: in vivo; conditions: for lordosis quotient (LQ): quinelorane 6.25µg/kg s.c. 90min
Experimental: (§1) Ovariectomised adult female Sprague Dawley rats (180-200g, from Charles River) were housed in groups of 6 in a reversed lighting system of 12h light:dark (lights off 7.00-19.00h). Two weeks after ovariectomy they were used for sexual activity tests. The experiments started at least 5h into the dark period.
It was administered intraperitoneally (i.p.) at a dose of 10mg/kg, in a dosing volume of 1ml/kg. […] Forty eight hours before testing, ovariectomised female rats (as described above), were primed with 5µg oestradiol benzoate dissolved in corn oil and injected subcutaneously. […] The females were placed with a series of vigorous male rats and subjected to 10 mounts.
The lordotic response of the animal was recorded and expressed as a percentage of the mounts (i.e. lordosis quotient, LQ), as previously described. Animals showing LQ<20 were considered non-receptive and were included in the study. Each rat was tested prior to administration of the compound and then tested similarly post-injection.
The above compound was dissolved in PEG200 vehicle and administered orally. […] Both compounds were administered in a 1ml/kg volume.
Forty eight hours before tests, the animals were primed with 5µg oestradiol benzoate (Sigma Chemical. Co. Ltd., UK) dissolved in corn oil and injected subcutaneously. The females were placed with a series of vigorous male rats and subjected to 10 mounts. The lordotic response of the animal was recorded and expressed as a percentage of the mounts (i.e. lordosis quotient, LQ). […] Animals showing higher LQ were not included in the study. Each rat was tested prior to administration of the compound and then tested similarly at 1h and 90min post-injection of the above compound or quinelorane respectively.

[2] = system: Ovariectomised adult female Sprague Dawley rats; assay: Female rat sexual proceptivity test (time investigating male vs female stimulus); type: in vivo
[3] = system: Sprague Dawley male rats; assay: Sexual behaviour of normal (sexually vigorous) male rats; type: in vivo, rat; conditions: Compound (1) 15mg/kg or Fluoxetine 20mg/kg i.p. 1h before tests, vs vehicle
Experimental: Sprague Dawley male rats (Charles River, UK) were kept, 4 rats per cage, in a reversed lighting regime (12:12 hours, lights off at 5.00 h), with free access to food and water. The rats were pre-selected by being presented with a receptive female at 4 days intervals, i.e. every third day (having 2 clear days between presentations) until completing 6-7 days of baseline determination. The animals showing consistently vigorous behaviour (ejaculatory latencies <300s) were chosen for further experiments (n=24). Animals were randomised into three groups. All animals received all three treatments following a latin-square design. Treatments were administered once a week, with a baseline test in between treatments (4 days intervals between baseline and test day). […] All treatments were administered i.p. in a 1ml/kg volume, 1h before tests.
For all the sexual behaviour tests, the males were placed in an observation arena (50-60 cm diameter), starting 5 hours into the dark cycle and observed under red illumination. Three to 4 minutes after placing the male in the arena, a receptive female (ovariectomised, bearing a 7 mm Silastic implant of oestradiol benzoate) was introduced to the arena and the following parameters noted: Mount Latency: time (in seconds) taken between introduction of female and first mount. A maximum time of 15 minutes (900 seconds) was allowed, and the test terminated if no mounts were recorded within that time (Figure 11), Intromission Latency: time (in seconds) taken between introduction of female and first intromission (Figure 12), Number of Mounts: to reach ejaculation. When ejaculation was not reached, the number of mounts was not analyzed, Number of Intromissions: to reach ejaculation. When ejaculation was not reached, the number of intromissions was not analyzed (Figure 13 is number of mounts + intromissions), Ejaculation Latency: time (in seconds) taken from first intromission to ejaculation. A maximum time of 30 minutes (1800 seconds) was given, and the test terminated if ejaculation was not achieved in that time (Figure 14), and Refractory Period: time (in seconds) taken from ejaculation to the first mount of the next series of sexual activity. In those animals reaching ejaculation the test was terminated at the end of the refractory period, as indicated by the first mount of the next sexual cycle (Figure 15).
A one-way ANOVA followed by Dunnett's t test was used to compare treated vs vehicle groups each day of testing, for all the sexual behaviour parameters.

[4] = system: Sprague Dawley male rats; assay: Sexual behaviour of fluoxetine-induced sexually dysfunctional male rats; type: in vivo, rat; conditions: fluoxetine 20mg/kg i.p. 3 days (vs vehicle+vehicle)
Experimental: Sprague Dawley male rats (Charles River, UK) were kept, 4 rats per cage, in a reversed lighting regime (12:12 hours, lights off at 5.00 h), with free access to food and water. The rats were pre-selected by being presented with a receptive female at 4 days intervals, i.e. every third day (having 2 clear days between presentations) until completing 6-7 trials of baseline determination. The animals showing consistently vigorous behaviour (ejaculatory latencies <300s) were chosen for further experiments. Animals were treated for 3 consecutive days with either vehicle (water) or fluoxetine (20mg/kg, i.p., in a 2ml/kg dosing volume). […] All treatments were administered i.p. in a 1ml/kg volume, 1h before tests.
For all the sexual behaviour tests, the males were placed in an observation arena (50-60 cm diameter), starting 5 hours into the dark cycle and observed under red illumination. Three to 4 minutes after placing the male in the arena, a receptive female (ovariectomised, bearing a 7 mm Silastic implant of oestradiol benzoate) was introduced to the arena and the following parameters noted: Mount Latency: time (in seconds) taken between introduction of female and first mount. A maximum time of 15 minutes (900 seconds) was allowed, and the test terminated if no mounts were recorded within that time (Figure 16), Ejaculation Latency: time (in seconds) taken from first intromission to ejaculation. A maximum time of 30 minutes (1800 seconds) was given, and the test terminated if ejaculation was not achieved in that time (Figure 17), Percentage of males achieving ejaculation within 30 minutes was calculated (Figure 18).
A one-way ANOVA followed by Dunnett's t test was used to compare the fluoxetine+vehicle group and other groups for mount and ejaculatory latencies. Percentage of animals ejaculating was analysed using a Chi-square test followed by Fisher's test. (*: P<0.05, **: P<0.01, ***: P<0.001; n=15-19).

[5] = system: Ovariectomised adult female Sprague Dawley rats; assay: Female rat sexual proceptivity test (time investigating male vs female stimulus); type: in vivo; remark: listed apart in the source
Experimental: as §1
Tests were carried out in a circular arena of 90cm diameter, surrounded by a 30cm high wall. Two small cages with wire-mesh front (15x15cm) are fixed into the wall such that the front of the cage is «flush» with the wall and the 2 cages are opposite each other. They contained two stimuli animals: an intact sexually experienced male and a receptive female (ovariectomised, primed with 5µg oestradiol benzoate dissolved in corn oil and injected subcutaneously 48 hours before the test and with 0.5 mg of progesterone four hours before the test). Sexually naive test and control animals were used. Forty eight hours before the tests, both the test and control animals were primed with 5µg oestradiol benzoate. For animals used as positive controls, progesterone (0.5mg/0.1ml) was dissolved in corn oil and administered subcutaneously (s.c.), 4h before the test. Test and control animals were introduced one at a time for 10 minute periods into the arena. During the 10min test, the time that the test or positive control animal spent investigating each stimulus animal was noted. The arena was thoroughly cleaned between animals. The position of the male/female stimuli boxes was randomised between animals, in order to avoid place preference. The difference in the percentage of time spent investigating the male minus the female stimuli was calculated, out of the total time spent investigating stimuli animals. […]
Ovariectomised adult female Sprague Dawley rats (180-200g) were housed in groups of 5 in a reversed lighting system of 12h light:dark (lights off 5.00-17.00h). They were used for the experiments at least two weeks after ovariectomy. Forty eight hours before tests, the animals were primed with oestradiol benzoate (5µg/0.1ml in corn oil, s.c.). On day 1, progesterone (0.5mg/0.1ml, in corn oil, s.c.) was administered to one of the groups 4h before tests, as a positive control. […] The test lasted 10 minutes and was carried out as described before. The difference in the percentage of time spent investigating the male minus the female stimuli was calculated, out of the total time spent investigating stimuli animals. Animals were submitted to a test on day 1 and on day 15. […] On day 15 the test took place again, as described for day 1. […]

[6] = Example 31, after vs before administration, Compound (2) oral 10-100mg/kg in PEG200, 1h
[7] = day 4 Compound (1) 15mg/kg or yohimbine 2mg/kg i.p. 1h before tests (vs fluoxetine+vehicle)

Compound: COc1ccc(C2(CNC(=O)[C@](C)(Cc3c[nH]c4ccccc34)Nc3nc(-c4ccc([N+](=O)[O-])cc4)co3)CCCCC2)nc1 [Example 9, (S)-3-(1H-Indol-3-yl)-N-[1-(5-methoxy-pyridin-2-yl)-cyclohexylmethyl]-2-methyl-2-[4-(4-nitro-phenyl)-oxazol-2-ylamino]-propionamide]
- lordosis quotient (LQ) [1, 6]: increased the LQ
- minimal effective dose ([1]; Rattus norvegicus, Example 31, single oral administration in PEG200, 1h after administration, P<0.01, read-out: MED (increase in LQ)): 100 mg/kg
- MED (increase in percentage of time spent investigating the male stimulus) ([2]; Example 29, oral, 30-100mg/kg in PEG 200 vehicle, 1h before test): 100 mg/kg
- percentage of time spent investigating the male stimulus ([2]; Example 29, oral, dose-dependent 30-100mg/kg in PEG 200, 1h before test): increased the percentage of time spent investigating the male stimulus
- increase in potency compared to the oral results obtained in the PEG200 vehicle ([2]; Example 30, methyl cellulose MED vs PEG200 MED): 10 fold
- MED (increase in percentage of time spent investigating the male stimulus) ([2]; Example 30, p.o., 3-30mg/kg in 0.5% methyl cellulose, 1h before tests): 10 mg/kg
- percentage of time spent investigating the male stimulus ([2]; Example 30, p.o., dose-dependent 3-30mg/kg in 0.5% methyl cellulose): increased the percentage of time spent investigating the male stimulus

Compound: CNCCC(Oc1ccc(C(F)(F)F)cc1)c1ccccc1 (centres unmarked) [fluoxetine, reference compound]
- Ejaculation latency [3]: also increased
- Intromission latency [3]: significantly increased
- Mount latency [3]: significantly increased
- Refractory period [3]: also increased
- number of mounts and intromissions required to achieve ejaculation [3]: No changes
- Ejaculation latency [4, 7]: significantly increased
- Mount latency [4, 7]: significantly increased
- percentage of animals ejaculating ([4]; within 30 minutes, day 4 Compound (1) 15mg/kg or yohimbine 2mg/kg i.p. (vs fluoxetine+vehicle)): significantly lower

Compound: neuromedin B [NMB, reference compound]
- proceptivity in progesterone-treated rats ([5]; Example 5, NMB 100ng i.c.v. 10min before tests, P<0.001 vs progesterone): significantly reduced proceptivity

Compound: CC(=O)[C@H]1CC[C@H]2[C@@H]3CCC4=CC(=O)CC[C@]4(C)[C@H]3CC[C@]12C [progesterone, reference compound]
- proceptivity, day 1 ([5]; Example 3, Compound (1) 15mg/kg i.p. 1h before test, progesterone 0.5mg/0.1ml s.c. 4h before, vs vehicle, P<0.01): stimulatory effect on proceptivity
- percentage of time spent investigating the male stimulus ([5]; Example 5, progesterone 0.5mg/0.1ml s.c. 4h before test, compared to vehicle group): increased the percentage of time spent investigating the male stimulus

Compound: CCCN1CCC[C@@H]2Cc3nc(N)ncc3C[C@H]21 [quinelorane, reference compound]
- lordosis quotient (LQ) ([1]; Example 2, after vs before administration (paired t test), Compound (1) 10mg/kg i.p. 1h): significantly (P<0.01) increased the LQ
- lordosis quotient (LQ) [1, 6]: significantly (P<0.01) increased the LQ
